Data on one molecule can be found in patent US20200108112A1, “METHOD FOR PREPARING FENUGREEK EXTRACT AND PHARMACEUTICAL COMPOSITION COMPRISING FENUGREEK EXTRACT” (PRINCE PHARMACEUTICAL CO., LTD., priority 2017, published 2020).

The subject of this assay is HepG2 cells. The assay is described as follows: Lipid droplets formation in HepG2 cells, formula of fenugreek extract (oil red-O / MTS index). It is filed as cell-based. To be noted: lipid droplets induced group = 100%; treated 16 hours, then lipid droplets induced reagent 16 hours. On the procedure:
(1) HepG2 cells were seeded at 2.5×10^4 cells/well and incubated for 24 hours. (2) The incubated cells were divided into the following groups: Control group (CG) was added with 1% DMSO to treat the HepG2 cells for 16 hours, and then treated with cell culture medium for 16 hours. Lipid droplets induced group (LDIG) was added with 1% DMSO to treat the HepG2 cells for 16 hours, and then treated with 500 nM lipid droplets induced reagent for 16 hours. […] In addition, in a preferred embodiment, Vitamin E, SiO2, MAG and Fibersol-2 ® may be additionally added as desired. Each experiment group was respectively added to treat the HepG2 cells for 16 hours, and then treated with lipid droplets induced reagent for 16 hours. [table] (3) The above groups were examined by MTS assay and oil red-O stain, and the oil red OD value/MTS OD value was used as the index of lipid droplets.

`NCCS(=O)(=O)O` [experiment group 7, taurine]: the “percentage of the lipid droplet formation” value was 72.4%.
